Reference: patent US9822343B2, “Methods and materials for obtaining induced pluripotent stem cells” (priority 2011, dated 2017)

Tests used:
Type in all cases: cell-based, mouse
[1] = tested on: MEFs; assay: 1H NMR metabolomic footprinting of extracellular metabolites of treated MEFs; settings: control experiments; 1.25 mM 2-DG, 100 μM BrPA, 5 mM DCA versus vehicle; n=3
Experimental: For footprinting of extracellular metabolites, 540 μL of media collected following 24 hours of culture was added to 60 μL of D2O (Sigma) containing 5 mM sodium 3-(trimethylsilyl)propionate-2,2,3,3-d4 (TSP) (Sigma) for chemical shift reference and 81.84 mM formate (Sigma) for peak quantification reference as described elsewhere (Turner et al., Stem Cells, 26:1547-1555 (2008)). Briefly, MEFs, iPS cells, and R1ESC were maintained in DMEM containing 15% FBS, pyruvate, L-glutamine, nonessential amino acids, 2-mercaptoethanol, and LIF in 6 well plates at 37° C. in a humidified incubator with 95% air and 5% CO2 (Martinez-Fernandez et al., Circ Res., 25; 105(7):648-56 (2009)). […]
For intracellular metabolite fingerprinting, neutralized perchloric acid extracts were concentrated with a SpeedVac and suspended in 600 μL of 100 mM phosphate buffer (pH 7.0) in D2O (Sigma) containing 0.5 mM TSP as described elsewhere (Beckonert et al., Nat. Protoc., 2:2692-2703 (2007)). […] Following Fourier transformation, spectra were autophased with metabonomic phase correction, baseline corrected using a Bernstein polynomial fit and referenced to the TSP peak (0.00 ppm) using MestReNova 5.3.2 (MestRelab Research). p-toluenesulfonic acid (Sigma) was utilized as a reference standard to calibrate the formate concentration for quantitative analysis (Shao et al., J. Chromatogr. A, 1138:305-308 (2007)). […]

[2] = tested on: parental MEF population; assay: Growth of the parental MEF population; settings: 1.25 mM 2-DG, 100 μM BrPA, 5 mM DCA
[3] = tested on: MEFs undergoing nuclear reprogramming; assay: Reprogramming efficiency by FACS analysis of SSEA-1 expression; settings: vehicle 27.8±3.1, mean±SEM, n=3
Excerpt: (§1) Mouse embryonic fibroblasts (MEFs) were transduced with HIV-based viral vectors encoding OCT3/4, SOX2, and KLF4 either in the presence (4F) or absence of c-MYC (3F) to produce iPS clones that met pluripotent criteria including expression of stem cell markers, embryoid body differentiation, teratoma formation, diploid aggregation, and contribution to organogenesis (Martinez-Fernandez et al., Circ. Res., 105:648-656 (2009); Nelson et al., Clin. Transl. Sci., 2:118-126 (2009); and Nelson et al., Circulation, 120:408-416 (2009)). Alternatively, iPS cells were derived with a viPS (Open Biosystems) kit. iPS cells were induced and maintained in ES Cell qualified DMEM supplemented with 15% FBS, 25 mM glucose, 2 mM Glutamax (Invitrogen), and 1 mM sodium pyruvate. In reprogramming experiments, media was supplemented with 0.25 or 1.25 mM 2DG (Sigma), 100 μM BrPA (Sigma) or 5 mM DCA (Sigma). Reprogramming efficiency was quantified using an alkaline phosphatase staining kit (Stemgent) or FACS analysis of SSEA-1 expression (Millipore) on a LSR II flow cytometer.

[4] = tested on: MEFs undergoing nuclear reprogramming; assay: Reprogramming efficiency by alkaline phosphatase staining; settings: 2-DG during reprogramming (media supplemented with 0.25 or 1.25 mM 2DG)
Excerpt: as §1

Structure (SMILES)	Extracellular metabolite profile of treated MEFs [1]	Cell growth of parental MEF population [2]	% SSEA1 positive cells (reprogramming efficiency) ([3]; 1.25 mM 2-DG during reprogramming) [% SSEA1 positive cells]	Induction of the pluripotent marker alkaline phosphatase [4]	% SSEA1 positive cells (reprogramming efficiency) ([3]; 100 μM BrPA during reprogramming) [% SSEA1 positive cells]	% SSEA1 positive cells (reprogramming efficiency) ([3]; 5 mM DCA during reprogramming) [% SSEA1 positive cells]
O=CC[C@@H](O)[C@H](O)[C@H](O)CO [2-DG, 2-deoxyglucose]	consistent with inhibition of glycolysis and stimulation of oxidative metabolism	without impairing cell growth	0.9±0.3	blunted induction of the pluripotent marker alkaline phosphatase		
O=C(O)C(=O)CBr [BrPA, 3-bromopyruvic acid]	consistent with inhibition of glycolysis and stimulation of oxidative metabolism	without impairing cell growth			19.8±1.0	
O=C(O)C(Cl)Cl [DCA, dichloroacetate]		without impairing cell growth				17.3±1.5
